Test results published in ChEMBL document CHEMBL1201862, “PubChem BioAssay data set” (2004).
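Test compounds were applied to cells in 96-well plates for 48 hours at 5 doses. The concentration for 50% growth inhibition is given as GI50.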 Active and inactive are the calls of the source. Rule as the data show it: active = GI50 up to about 1.1 µM and inactive = higher.

Tests used:
Experiment in all cases: DTP human tumour cell line panel, 48 h
[1] = tested on: 786-0
[2] = tested on: A498
[3] = tested on: A549
[4] = tested on: ACHN
[5] = tested on: BT-549
[6] = tested on: CAKI-1
[7] = tested on: CCRF-CEM
[8] = tested on: COLO 205
[9] = tested on: DU-145
[10] = tested on: EKVX
[11] = tested on: HCT-116
[12] = tested on: HCT-15
[13] = tested on: HL-60
[14] = tested on: HOP-62
[15] = tested on: HOP-92
[16] = tested on: HT-29
[17] = tested on: Hs-578T
[18] = tested on: IGROV-1
[19] = tested on: K562
[20] = tested on: KM12
[21] = tested on: LOX IMVI
[22] = tested on: M14
[23] = tested on: MCF7
[24] = tested on: MDA-MB-231
[25] = tested on: MDA-MB-435
[26] = tested on: MDA-N
[27] = tested on: MOLT-4
[28] = tested on: Malme-3M
[29] = tested on: NCI-H226
[30] = tested on: NCI-H23
[31] = tested on: NCI-H522
[32] = tested on: NCI/ADR-RES
[33] = tested on: OVCAR-3
[34] = tested on: OVCAR-4
[35] = tested on: OVCAR-5
[36] = tested on: OVCAR-8
[37] = tested on: PC-3
[38] = tested on: RPMI-8226
[39] = tested on: SF-268
[40] = tested on: SF-295
[41] = tested on: SF-539
[42] = tested on: SK-MEL-28
[43] = tested on: SK-MEL-2
[44] = tested on: SK-MEL-5
[45] = tested on: SK-OV-3
[46] = tested on: SN12C
[47] = tested on: SNB-19
[48] = tested on: SR
[49] = tested on: SW-620
[50] = tested on: T47D
[51] = tested on: TK-10
[52] = tested on: U-251
[53] = tested on: UACC-62
[54] = tested on: UO-31
[55] = tested on: HCC 2998
[56] = tested on: NCI-H460
[57] = tested on: RXF 393
[58] = tested on: SNB-75
[59] = tested on: UACC-257

## CNC(=O)C1(N)c2ccccc2C=Cc2ccccc21
[1]
  GI50: > 100 µM (inactive)
[2]
  GI50: > 100 µM (inactive)
[3]
  GI50: > 100 µM (inactive)
[4]
  GI50: > 100 µM (inactive)
[5]
  GI50: > 100 µM (inactive)
[6]
  GI50: > 100 µM (inactive)
[7]
  GI50: > 100 µM (inactive)
[8]
  GI50: > 100 µM (inactive)
[9]
  GI50: > 100 µM (inactive)
[10]
  GI50: > 100 µM (inactive)
[11]
  GI50: > 100 µM (inactive)
[12]
  GI50: > 100 µM
[13]
  GI50: > 100 µM (inactive)
[14]
  GI50: > 100 µM (inactive)
[15]
  GI50: > 100 µM (inactive)
[16]
  GI50: > 100 µM (inactive)
[17]
  GI50: > 100 µM (inactive)
[18]
  GI50: > 100 µM (inactive)
[19]
  GI50: > 100 µM (inactive)
[20]
  GI50: > 100 µM (inactive)
[21]
  GI50: > 100 µM (inactive)
[22]
  GI50: > 100 µM (inactive)
[23]
  GI50: > 100 µM (inactive)
[24]
  GI50: > 100 µM (inactive)
[25]
  GI50: > 100 µM (inactive)
[26]
  GI50: > 100 µM (inactive)
[27]
  GI50: > 100 µM (inactive)
[28]
  GI50: > 100 µM (inactive)
[29]
  GI50: > 100 µM (inactive)
[30]
  GI50: > 100 µM (inactive)
[31]
  GI50: > 100 µM (inactive)
[32]
  GI50: > 100 µM (inactive)
[33]
  GI50: > 100 µM (inactive)
[34]
  GI50: > 100 µM (inactive)
[35]
  GI50: > 100 µM (inactive)
[36]
  GI50: > 100 µM (inactive)
[37]
  GI50: > 100 µM (inactive)
[38]
  GI50: > 100 µM (inactive)
[39]
  GI50: > 100 µM (inactive)
[40]
  GI50: > 100 µM (inactive)
[41]
  GI50: > 100 µM (inactive)
[42]
  GI50: > 100 µM (inactive)
[43]
  GI50: > 100 µM (inactive)
[44]
  GI50: > 100 µM (inactive)
[45]
  GI50: > 100 µM (inactive)
[46]
  GI50: > 100 µM (inactive)
[47]
  GI50: > 100 µM (inactive)
[48]
  GI50: > 100 µM (inactive)
[49]
  GI50: > 100 µM (inactive)
[50]
  GI50: > 100 µM (inactive)
[51]
  GI50: > 100 µM (inactive)
[52]
  GI50: > 100 µM (inactive)
[53]
  GI50: > 100 µM (inactive)
[54]
  GI50: > 100 µM (inactive)

## CN1C(=O)CN=C(c2ccccc2F)c2cc(N=C=S)ccc21
[1]
  GI50: 43.8 µM (inactive)
[2]
  GI50: 26.8 µM (inactive)
[3]
  GI50: 33.9 µM (inactive)
[4]
  GI50: 25.5 µM (inactive)
[5]
  GI50: 58.5 µM (inactive)
[6]
  GI50: 11.3 µM (inactive)
[7]
  GI50: 19.2 µM (inactive)
[9]
  GI50: 86.3 µM (inactive)
[10]
  GI50: > 100 µM (inactive)
[55]
  GI50: 50.8 µM (inactive)
[11]
  GI50: 44.3 µM (inactive)
[12]
  GI50: 35.8 µM
[13]
  GI50: 34.2 µM (inactive)
[14]
  GI50: > 100 µM (inactive)
[15]
  GI50: 23.7 µM (inactive)
[16]
  GI50: 34.2 µM (inactive)
[17]
  GI50: 61.7 µM (inactive)
[18]
  GI50: 38.7 µM (inactive)
[20]
  GI50: 44.6 µM (inactive)
[21]
  GI50: 41.4 µM (inactive)
[22]
  GI50: 52.1 µM (inactive)
[23]
  GI50: 29.5 µM (inactive)
[24]
  GI50: 45.8 µM (inactive)
[25]
  GI50: 35.9 µM (inactive)
[26]
  GI50: 54.3 µM (inactive)
[28]
  GI50: > 100 µM (inactive)
[30]
  GI50: 62.4 µM (inactive)
[56]
  GI50: 36.6 µM (inactive)
[31]
  GI50: 0.665 µM (active)
[32]
  GI50: 43.1 µM (inactive)
[33]
  GI50: 52 µM (inactive)
[34]
  GI50: 35.4 µM (inactive)
[35]
  GI50: > 100 µM (inactive)
[36]
  GI50: 47.5 µM (inactive)
[37]
  GI50: 45.9 µM (inactive)
[57]
  GI50: 36.6 µM (inactive)
[39]
  GI50: 67 µM (inactive)
[40]
  GI50: 52.8 µM (inactive)
[43]
  GI50: 92.3 µM (inactive)
[45]
  GI50: > 100 µM (inactive)
[46]
  GI50: 96.2 µM (inactive)
[47]
  GI50: 60 µM (inactive)
[58]
  GI50: 33.5 µM (inactive)
[49]
  GI50: 53.5 µM (inactive)
[50]
  GI50: 56.8 µM (inactive)
[51]
  GI50: 37.4 µM (inactive)
[52]
  GI50: 48.4 µM (inactive)
[59]
  GI50: 43.5 µM (inactive)
[53]
  GI50: 25.1 µM (inactive)
[54]
  GI50: 17.1 µM (inactive)

## COC(=O)c1sc(=S)sc1SCc1ccc(CSc2sc(=S)sc2C(=O)OC)cc1
[1]
  GI50: > 100 µM (inactive)
[2]
  GI50: > 100 µM (inactive)
[3]
  GI50: > 100 µM (inactive)
[4]
  GI50: > 100 µM (inactive)
[5]
  GI50: > 100 µM (inactive)
[6]
  GI50: > 100 µM (inactive)
[7]
  GI50: > 100 µM (inactive)
[8]
  GI50: > 100 µM (inactive)
[9]
  GI50: > 100 µM (inactive)
[10]
  GI50: > 100 µM (inactive)
[55]
  GI50: > 100 µM (inactive)
[11]
  GI50: > 100 µM (inactive)
[12]
  GI50: > 100 µM
[14]
  GI50: > 100 µM (inactive)
[15]
  GI50: > 100 µM (inactive)
[16]
  GI50: > 100 µM (inactive)
[17]
  GI50: > 100 µM (inactive)
[18]
  GI50: > 100 µM (inactive)
[19]
  GI50: > 100 µM (inactive)
[20]
  GI50: > 100 µM (inactive)
[21]
  GI50: > 100 µM (inactive)
[22]
  GI50: > 100 µM (inactive)
[23]
  GI50: > 100 µM (inactive)
[24]
  GI50: > 100 µM (inactive)
[25]
  GI50: > 100 µM (inactive)
[26]
  GI50: > 100 µM (inactive)
[27]
  GI50: > 100 µM (inactive)
[28]
  GI50: > 100 µM (inactive)
[29]
  GI50: > 100 µM (inactive)
[30]
  GI50: > 100 µM (inactive)
[56]
  GI50: > 100 µM (inactive)
[31]
  GI50: > 100 µM (inactive)
[32]
  GI50: > 100 µM (inactive)
[33]
  GI50: > 100 µM (inactive)
[34]
  GI50: > 100 µM (inactive)
[35]
  GI50: > 100 µM (inactive)
[36]
  GI50: > 100 µM (inactive)
[37]
  GI50: > 100 µM (inactive)
[57]
  GI50: > 100 µM (inactive)
[39]
  GI50: > 100 µM (inactive)
[40]
  GI50: > 100 µM (inactive)
[42]
  GI50: > 100 µM (inactive)
[43]
  GI50: > 100 µM (inactive)
[44]
  GI50: > 100 µM (inactive)
[45]
  GI50: > 100 µM (inactive)
[46]
  GI50: > 100 µM (inactive)
[47]
  GI50: > 100 µM (inactive)
[58]
  GI50: > 100 µM (inactive)
[49]
  GI50: > 100 µM (inactive)
[50]
  GI50: > 100 µM (inactive)
[51]
  GI50: > 100 µM (inactive)
[52]
  GI50: > 100 µM (inactive)
[59]
  GI50: > 100 µM (inactive)
[53]
  GI50: > 100 µM (inactive)
[54]
  GI50: > 100 µM (inactive)
